Assay [1] concerns the target T1, Tyrosine-protein phosphatase non-receptor type 7 (Homo sapiens, UniProt P35236).
T1 sequence (P35236 whole entry): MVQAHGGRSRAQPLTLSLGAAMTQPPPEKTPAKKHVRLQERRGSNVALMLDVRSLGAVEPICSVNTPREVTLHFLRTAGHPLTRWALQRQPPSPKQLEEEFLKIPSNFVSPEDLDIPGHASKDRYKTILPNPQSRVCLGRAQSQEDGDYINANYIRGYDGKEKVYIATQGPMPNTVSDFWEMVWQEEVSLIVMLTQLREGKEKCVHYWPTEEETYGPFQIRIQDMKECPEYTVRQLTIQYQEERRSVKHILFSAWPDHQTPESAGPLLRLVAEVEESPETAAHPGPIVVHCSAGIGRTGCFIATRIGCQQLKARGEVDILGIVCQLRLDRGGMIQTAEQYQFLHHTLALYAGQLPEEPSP
Briefly: HePTP tyrosine phosphatase activity blockers – biochemical, absorbance, leukemia target, primary screen (AID 521). In kind it is functional.

Assay [2] in a line: viability of PTEN-deleted HCT116 cells – cell-based, HCT116 PTEN knockout, dose response (AID 1047).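 Note: HCT116 colon tumor cells with PTEN knocked out; cells exposed to compound for 60 hours before readout; potency for loss of cell viability measured by luminescence.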 In kind it is functional.
Assay [3] in a line: viability of HCT116 lacking mutant beta-catenin – cell-based, human colon tumor, dose response (AID 1045).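 Note: HCT116 colon tumor cells with beta catenin knocked out; cells exposed to compound for 60 hours.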 In kind it is functional.
The target of another assay is T2, Protein skinhead-1 (Caenorhabditis elegans, UniProt P34707).
T2 sequence (P34707 whole entry): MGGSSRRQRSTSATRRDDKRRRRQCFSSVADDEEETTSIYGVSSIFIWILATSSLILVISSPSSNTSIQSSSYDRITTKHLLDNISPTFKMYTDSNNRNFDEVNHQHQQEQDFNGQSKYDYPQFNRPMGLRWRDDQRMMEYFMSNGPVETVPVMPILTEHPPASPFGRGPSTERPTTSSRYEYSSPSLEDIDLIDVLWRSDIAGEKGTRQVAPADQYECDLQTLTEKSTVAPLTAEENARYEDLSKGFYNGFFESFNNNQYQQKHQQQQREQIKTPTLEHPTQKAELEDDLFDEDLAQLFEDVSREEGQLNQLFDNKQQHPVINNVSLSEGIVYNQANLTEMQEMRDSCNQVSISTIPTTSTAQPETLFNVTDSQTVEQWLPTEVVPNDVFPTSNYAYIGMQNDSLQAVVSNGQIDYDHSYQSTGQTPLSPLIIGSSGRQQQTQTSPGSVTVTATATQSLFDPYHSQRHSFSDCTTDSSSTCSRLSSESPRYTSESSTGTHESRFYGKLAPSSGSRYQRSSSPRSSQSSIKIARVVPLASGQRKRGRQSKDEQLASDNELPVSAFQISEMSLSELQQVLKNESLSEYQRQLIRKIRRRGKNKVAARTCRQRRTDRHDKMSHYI
In kind it is functional.

The nature of assay [4]: reduced cellular PGC1a acetyl-lysine signal – cell-based, cherry-picked samples, dose response (AID 720514).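 Note: potency may reflect raised or lowered acetylation signal.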 In kind it is functional.
In assay [5] the test system is HEK293. Briefly: inhibition of NOD1-driven NF-kB reporter – cell-based, luminescence, uHTS, primary screen (AID 1578). In kind it is functional. To be noted: Homo sapiens.
Assay [6] concerns HEK293. Briefly: cells. In kind it is functional, cell-based. The settings on record: Homo sapiens.
A further assay concerns the target Galanin receptor type 2 (Homo sapiens, UniProt O43603). Briefly: Dose Response cell-based high-throughput screening assay to identify antagonists of galanin receptor 2 (GALR2). [Related pubchem assays: 828, 866 ]. In kind it is functional.
The subject of assay [7] is HEK293. Briefly: cells. In kind it is functional, cell-based. To be noted: Homo sapiens. The source holds these as a separate data set.
For assay [8], the target named is Nucleotide-binding oligomerization domain-containing protein 2 (Homo sapiens, UniProt Q9HC29). Briefly: inhibition of NOD2-driven NF-kB reporter – cell-based, luminescence, uHTS, HEK293 (AID 1566). In kind it is functional.
For assay [9], the system named is HEK293. Briefly: NOD2 signaling inhibitors in MDP-stimulated cells, cell-based, uHTS, luminescence (AID 2001). In kind it is functional. The settings on record: Homo sapiens.
Assay [10] concerns HEK293. Briefly: cells. In kind it is functional, cell-based. The settings on record: Homo sapiens. This is another data set of the same source.
In assay [11] the target is Heat shock protein HSP 90-alpha (Homo sapiens, UniProt P07900). The assay can be described thus: Luminescence-based dose response biochemical high throughput screening assay for inhibitors of the Heat Shock Protein 90 (HSP90). [Related pubchem assays: 1831 (Summary AID.), 1846 (Confirmation screen.), 1789 (Primary screen.)].
A further assay has as its system INS1. The assay can be described thus: INS-1E survival protection against cytokine death – cell-based, luminescence, retest, dose response (AID 449756).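 Note: cell death triggered by IL-1 beta plus TNF-alpha plus IFN-gamma mixture; protective hits raise ATP signal compared with cytokine alone wells.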 In kind it is functional. To be noted: Rattus norvegicus.
Assay [12] deals with COUP transcription factor 2 (Homo sapiens, UniProt P24468). Briefly: Luminescence-based cell-based high throughput dose response assay to identify inhibitors of COUP-TFII (NR2F2). In kind it is functional.
Another assay deals with Paired box protein Pax-8 (Homo sapiens, UniProt Q06710). The assay can be described thus: PAX8 transcriptional activity inhibition in RMG-I – RMG-I cells, luciferase, cherry-pick, dose response (AID 687027).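 Note: luciferase reporter driven by Pax8 target thyroperoxidase promoter measured by SteadyGlo luminescence.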 In kind it is functional, cell-based.
Assay [13] is described as follows: inhibitors acting on PAX2 in cells – cell-based, plate reader, dry powder samples, selectivity assay for PAX8 inhibitor project, dose response (AID 743048).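 Note: HEK293 cells carrying a WT1 promoter luciferase reporter driven by expressed Pax2; potency is for inhibition of Pax2 driven reporter signal.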 In kind it is functional.
Assay [14] in a line: COV362 cell viability loss – plate reader, dry powder, SA12, cytotoxicity control for PAX8 inhibitor project, dose response (AID 743144). In kind it is functional, cell-based.
Assay [15] is described as follows: toxicity toward immortalized ovarian surface epithelium – cell-based, plate reader, dry powder samples, cytotoxicity control for PAX8 inhibitor project, dose response (AID 743045). In kind it is functional.
Assay [16] can be described thus: PAX5 cellular inhibition readout – cell-based, plate reader, dry powder samples, selectivity assay for PAX8 inhibitor project, dose response (AID 743047).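 Note: HEK293 cells carrying a Pax5 driven CD19 promoter luciferase reporter; potency of inhibitors that lower reporter luminescence.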 In kind it is functional.
Assay [17] is described as follows: OVCAR4 cell viability loss – plate reader, dry powder, SA11, cytotoxicity control for PAX8 inhibitor project, dose response (AID 743150). In kind it is functional, cell-based. To be noted: OVCAR-4.
Assay [18] is described as follows: COV434 cell viability loss – plate reader, dry powder, SA7, cytotoxicity control for PAX8 inhibitor project, dose response (AID 743145). In kind it is functional, cell-based.
A short description of assay [19]: OV-90 cell viability loss – plate reader, dry powder, SA8, PAX8 inhibitor project, dose response (AID 743149). In kind it is functional, cell-based.
The nature of assay [20]: PAX8-dependent cell viability loss – plate reader, dry powder, dose response (AID 743049). In kind it is functional, cell-based.
The target in assay [21] is T3, Methionyl-tRNA synthetase, putative (Trypanosoma brucei brucei, UniProt Q38C91).
T3 sequence (Q38C91 whole entry): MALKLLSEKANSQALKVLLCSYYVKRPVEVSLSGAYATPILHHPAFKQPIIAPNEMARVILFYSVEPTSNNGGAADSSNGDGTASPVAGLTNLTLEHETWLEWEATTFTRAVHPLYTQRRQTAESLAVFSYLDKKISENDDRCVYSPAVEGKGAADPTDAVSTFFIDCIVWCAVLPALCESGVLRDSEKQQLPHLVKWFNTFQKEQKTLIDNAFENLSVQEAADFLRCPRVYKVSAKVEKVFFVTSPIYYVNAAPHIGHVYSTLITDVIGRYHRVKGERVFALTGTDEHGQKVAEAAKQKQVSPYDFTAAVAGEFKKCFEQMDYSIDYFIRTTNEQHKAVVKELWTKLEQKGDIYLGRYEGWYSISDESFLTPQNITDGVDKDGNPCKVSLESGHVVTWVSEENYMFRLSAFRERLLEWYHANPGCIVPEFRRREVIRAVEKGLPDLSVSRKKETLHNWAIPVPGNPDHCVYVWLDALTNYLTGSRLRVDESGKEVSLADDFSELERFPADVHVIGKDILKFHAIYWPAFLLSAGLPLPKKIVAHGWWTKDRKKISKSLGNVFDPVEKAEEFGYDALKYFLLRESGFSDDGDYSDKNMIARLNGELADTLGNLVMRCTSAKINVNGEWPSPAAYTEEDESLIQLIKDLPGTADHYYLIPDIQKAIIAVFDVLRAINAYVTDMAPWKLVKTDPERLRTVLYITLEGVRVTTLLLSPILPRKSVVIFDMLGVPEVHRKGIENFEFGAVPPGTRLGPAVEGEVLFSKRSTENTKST
In kind it is functional, Trypanosoma brucei brucei strain 927/4 GUTat10.1.

Assay [22] is described as follows: Counterscreen for inhibitors of Trypanosoma brucei methionyl tRNA synthetase (MetRS): Luminescence-based cell-based high throughput dose response assay to identify compounds that are cytotoxic to Jurkat human T lymphocyte cells. In kind it is functional. For orientation: The purpose of a counterscreen is to sort out artefacts and off-target activity.
Assay [23] concerns the target T3, Methionyl-tRNA synthetase, putative. In kind it is functional, Trypanosoma brucei brucei strain 927/4 GUTat10.1. This is another data set of the same source.
Assay [24] is described as follows: Late stage counterscreen for inhibitors of Trypanosoma brucei methionyl tRNA synthetase (MetRS): Luminescence-based cell-based high throughput dose response assay to identify compounds that are cytotoxic to Jurkat human T lymphocyte cells. In kind it is functional.
The target in assay [25] is NAD-dependent protein deacylase sirtuin-5, mitochondrial (Homo sapiens, UniProt Q9NXA8). The assay can be described thus: sirtuin-5 deacylation blockers, concentration series – biochemical, fluorescence imaging, cherry-pick, set 5, dose response (AID 720591).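 Note: desuccinylation of succinyl peptide AMC substrate read as fluorescence after trypsin release; potency of inhibitors that lower fluorescence and may act on trypsin instead.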
The target of assay [26] is T4, Endoribonuclease toxin MazF (Escherichia coli K-12, UniProt P0AE70).
T4 sequence (P0AE70 whole entry): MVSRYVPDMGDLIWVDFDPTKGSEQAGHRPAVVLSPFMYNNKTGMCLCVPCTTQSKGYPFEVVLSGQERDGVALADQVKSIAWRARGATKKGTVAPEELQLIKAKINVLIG
Briefly: activation of MazEF endoribonuclease cleavage – biochemical, fluorescence, single-stranded RNA substrate, uHTS hits, dose response (AID 588481). In kind it is functional.

The target of assay [27] is T4, Endoribonuclease toxin MazF. Briefly: substrate-only fluorescence increase artefacts – biochemical, single-stranded RNase substrate, counter-screen for MazEF activator project, dose response (AID 588502). In kind it is functional.
The next assay deals with Protein Tat (Human immunodeficiency virus type 1 group M subtype B (isolate HXB2)(HIV-1), UniProt P04608). In kind it is functional.

The structures appear in SMILES notation. Activity calls are given as the source filed them.

Nucleotide-binding oligomerization domain-containing protein 2, sequence (Q9HC29 whole entry, the tested form may be a part): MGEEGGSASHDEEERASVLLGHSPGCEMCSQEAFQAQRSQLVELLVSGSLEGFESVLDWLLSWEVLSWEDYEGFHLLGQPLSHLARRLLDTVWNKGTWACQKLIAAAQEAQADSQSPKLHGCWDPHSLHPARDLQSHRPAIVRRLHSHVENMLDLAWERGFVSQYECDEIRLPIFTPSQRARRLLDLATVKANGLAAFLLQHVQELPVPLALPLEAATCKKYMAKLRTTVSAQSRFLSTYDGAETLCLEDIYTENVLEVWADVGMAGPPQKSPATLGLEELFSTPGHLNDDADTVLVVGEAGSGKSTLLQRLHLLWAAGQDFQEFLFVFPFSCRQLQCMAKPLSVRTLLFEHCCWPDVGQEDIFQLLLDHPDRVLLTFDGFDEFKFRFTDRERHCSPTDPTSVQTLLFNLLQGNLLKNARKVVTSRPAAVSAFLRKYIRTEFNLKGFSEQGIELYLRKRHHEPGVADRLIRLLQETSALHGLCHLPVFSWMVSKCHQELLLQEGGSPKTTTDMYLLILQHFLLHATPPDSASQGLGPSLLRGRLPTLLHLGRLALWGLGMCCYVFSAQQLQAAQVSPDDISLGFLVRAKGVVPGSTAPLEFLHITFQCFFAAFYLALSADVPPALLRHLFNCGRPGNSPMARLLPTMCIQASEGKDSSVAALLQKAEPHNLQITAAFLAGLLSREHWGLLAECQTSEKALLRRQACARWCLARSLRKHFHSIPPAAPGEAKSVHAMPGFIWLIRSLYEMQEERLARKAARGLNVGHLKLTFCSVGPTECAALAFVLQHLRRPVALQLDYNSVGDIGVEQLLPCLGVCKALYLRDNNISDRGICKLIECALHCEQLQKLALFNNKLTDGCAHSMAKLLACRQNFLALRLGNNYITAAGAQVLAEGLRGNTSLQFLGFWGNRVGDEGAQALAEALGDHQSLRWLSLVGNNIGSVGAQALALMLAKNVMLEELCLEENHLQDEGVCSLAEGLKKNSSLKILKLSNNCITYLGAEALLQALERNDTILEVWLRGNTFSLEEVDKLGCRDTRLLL
COUP transcription factor 2, sequence (P24468 whole entry): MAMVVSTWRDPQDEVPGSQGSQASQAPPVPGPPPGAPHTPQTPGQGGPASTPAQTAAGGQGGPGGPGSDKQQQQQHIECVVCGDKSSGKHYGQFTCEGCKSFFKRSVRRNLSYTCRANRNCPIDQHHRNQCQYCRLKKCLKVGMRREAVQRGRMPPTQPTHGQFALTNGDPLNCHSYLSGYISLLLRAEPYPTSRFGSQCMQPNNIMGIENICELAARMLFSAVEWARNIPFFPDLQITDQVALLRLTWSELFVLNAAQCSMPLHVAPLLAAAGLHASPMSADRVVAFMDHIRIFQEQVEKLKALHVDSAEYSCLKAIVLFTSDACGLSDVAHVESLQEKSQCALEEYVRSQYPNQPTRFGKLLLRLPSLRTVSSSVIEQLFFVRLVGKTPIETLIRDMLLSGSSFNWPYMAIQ
Protein Tat, sequence (P04608 whole entry): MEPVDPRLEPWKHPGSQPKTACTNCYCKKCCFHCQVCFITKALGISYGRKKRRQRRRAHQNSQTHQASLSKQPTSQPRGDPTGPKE
Galanin receptor type 2, sequence (O43603 whole entry): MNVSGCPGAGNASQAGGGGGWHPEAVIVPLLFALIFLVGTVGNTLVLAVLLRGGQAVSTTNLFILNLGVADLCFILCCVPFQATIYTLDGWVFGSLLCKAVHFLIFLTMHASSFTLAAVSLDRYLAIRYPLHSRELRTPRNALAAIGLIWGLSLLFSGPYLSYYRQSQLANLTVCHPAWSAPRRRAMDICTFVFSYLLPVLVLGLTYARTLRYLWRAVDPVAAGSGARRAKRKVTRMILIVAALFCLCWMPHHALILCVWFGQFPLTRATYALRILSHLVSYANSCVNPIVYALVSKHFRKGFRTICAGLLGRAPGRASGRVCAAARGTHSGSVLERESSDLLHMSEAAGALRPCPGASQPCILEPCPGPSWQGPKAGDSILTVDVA
Paired box protein Pax-8, sequence (Q06710 whole entry): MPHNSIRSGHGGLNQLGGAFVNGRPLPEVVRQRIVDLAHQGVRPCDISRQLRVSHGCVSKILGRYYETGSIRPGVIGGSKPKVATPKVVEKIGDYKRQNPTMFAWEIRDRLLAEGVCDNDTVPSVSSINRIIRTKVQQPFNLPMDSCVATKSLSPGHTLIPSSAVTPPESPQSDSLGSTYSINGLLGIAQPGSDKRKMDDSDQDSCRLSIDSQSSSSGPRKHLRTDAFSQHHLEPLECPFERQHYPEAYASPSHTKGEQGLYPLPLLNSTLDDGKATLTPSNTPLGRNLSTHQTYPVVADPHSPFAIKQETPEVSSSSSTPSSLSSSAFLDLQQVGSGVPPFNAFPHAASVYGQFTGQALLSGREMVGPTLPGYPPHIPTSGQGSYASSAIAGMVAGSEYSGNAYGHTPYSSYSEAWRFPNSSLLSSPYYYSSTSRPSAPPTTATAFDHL
NAD-dependent protein deacylase sirtuin-5, mitochondrial, sequence (Q9NXA8 whole entry): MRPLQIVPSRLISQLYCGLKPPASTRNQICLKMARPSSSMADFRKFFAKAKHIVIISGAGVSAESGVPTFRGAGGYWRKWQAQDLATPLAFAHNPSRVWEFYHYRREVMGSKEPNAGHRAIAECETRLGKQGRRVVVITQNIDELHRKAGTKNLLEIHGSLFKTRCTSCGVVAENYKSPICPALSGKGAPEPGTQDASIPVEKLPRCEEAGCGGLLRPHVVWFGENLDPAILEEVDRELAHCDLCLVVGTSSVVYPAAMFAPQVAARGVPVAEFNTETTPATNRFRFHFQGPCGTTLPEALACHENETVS

By IC50 is commonly meant the point on the concentration scale where inhibition reaches its midpoint. As to `CN(Cc1ccccc1)c1nc2c(c(=O)[nH]c(=O)n2C)n1Cc1ccccc1`, the IC50 in assay [1] was > 100 µM (not active).
As a reminder, the EC50 is the concentration needed to bring the measured effect to its halfway point. Usually AC50 stands for the concentration at which the activity in the assay is half-maximal. For `CCOc1cc(CNC2CCCC2)cc(Cl)c1OCc1ccc(F)cc1`, the EC50 in assay [2] is 16.1 µM (active); in [3], 12.5 µM (active). On Protein skinhead-1, the IC50 was < 3.13 µM (active). Besides, the AC50 in assay [4] was 9.73 µM (active).
For the molecule `CC(=O)Nc1ccccc1OCC(=O)c1cc(C)n(Cc2cccs2)c1C`, the EC50 in the assay on HEK293 [5] is 0.566 µM (active); in assay [8] it was < 0.31 µM (inactive). Also, the IC50 in the assay with HEK293 [6] was < 0.312 µM (active); against Galanin receptor type 2, > 42 µM (not active); with HEK293 [7] it was 13.4 µM (active); in the assay on HEK293 [9], 2.05 µM (inactive); in the assay on HEK293 [10], > 20 µM (inactive); in [11], 0.106 µM (active). Also, the IC50 in [12] is 0.807 µM (active). In addition, the AC50 in the assay with INS1 is 0.775 µM (active).
For `COc1ccc(CCN2C(=O)CSC2=S)cc1OC`, the AC50 is 7.01 µM (active) on Paired box protein Pax-8; 68.3 µM (active) in assay [13]; 16.6 µM (active) in assay [14]; 16.8 µM (active) in assay [15]; > 100 µM (inactive) in assay [16]; 51.2 µM (active) in assay [17]. Moreover, the AC50 is 6.49 µM (active) in assay [18], 8.61 µM (active) in [19] and 16 µM (active) in assay [20].
`Clc1ccc(OCCSCc2nc3ccccc3[nH]2)cc1`: the IC50 in assay [21] was 8.17 µM (active); in assay [22], 83.3 µM (inactive); in assay [23], 5.85 µM (active); in assay [24], > 83.3 µM (inactive).
`O=C(O)CCNC(=O)c1ccc(NC(=O)C(c2ccccc2)c2ccccc2)cc1`: in assay [25], the AC50 was 10.6 µM (active).
As to `CCN(CC)c1ccc(/C=N/c2ccc(N(C)C)cc2)c(O)c1`, the EC50 in [26] and in assay [27] was > 99 µM (inactive) in each case. On Protein Tat, the IC50 was > 100 µM (inconclusive).

Values taken from ChEMBL document CHEMBL1201862, “PubChem BioAssay data set” (2004).
